Source: patent US9949475B2, “Composition comprising active ingredient, oil and ionic liquid” (priority 2011, dated 2018)
≈ marks a conversion by molar mass, not a printed value. Where two headings read alike, the source gives them in different places.

Test: Solubility of agrochemical active ingredient in oil comprising ionic liquid
Assay type: physicochemical
Settings: thermodynamic from solid, 21° C.
Description: Alternatively, the oil, which comprised the ionic liquid, was saturated with the active ingredient and the soluble fraction of active ingredient was quantified by means of HPLC. In the first line of the tables, in each case the weight ratios of oil to IL are given.

A solubility (Cetiol B oil comprising ionic liquid, 21 °C, oil or lipid, Oil/IL 60/40 weight ratio, IL N-butyl-N′-methylimidazolium dimethylphosphate, read-out: Solubility of fluxapyroxad with Cetiol ® B as oil) of 43.1 mg/mL, a solubility (Cetiol B oil comprising ionic liquid, 21 °C, oil or lipid, Oil/IL 60/40 weight ratio, IL N-ethyl-N′-ethylimidazolium propionate, read-out: Solubility of fluxapyroxad with Cetiol ® B as oil) of 50.8 mg/mL and a solubility (Cetiol B oil comprising ionic liquid, 21 °C, oil or lipid, Oil/IL 60/40 weight ratio, IL N-ethyl-N′-methylimidazolium acetate, read-out: Solubility of fluxapyroxad with Cetiol ® B as oil) of 54.9 mg/mL were found for `Cn1cc(C(=O)Nc2ccccc2-c2cc(F)c(F)c(F)c2)c(C(F)F)n1` [fluxapyroxad, 3-(difluoromethyl)-1-methyl-N-(3′,4′,5′-trifluorobiphenyl-2-yl)pyrazole-4-carboxamide] in this work. It also gave a solubility (Cetiol B oil comprising ionic liquid, 21 °C, oil or lipid, Oil/IL 60/40 weight ratio, IL N-ethyl-N′-methylimidazolium dibutylphosphate, read-out: Solubility of fluxapyroxad with Cetiol ® B as oil) of 46 mg/mL, a solubility (Cetiol B oil comprising ionic liquid, 21 °C, oil or lipid, Oil/IL 60/40 weight ratio, IL N-ethyl-N′-methylimidazolium heptanoate, read-out: Solubility of fluxapyroxad with Cetiol ® B as oil) of 50 mg/mL and a solubility (Cetiol B oil comprising ionic liquid, 21 °C, oil or lipid, Oil/IL 60/40 weight ratio, IL N-ethyl-N′-methylimidazolium octanoate, read-out: Solubility of fluxapyroxad with Cetiol ® B as oil) of 49.5 mg/mL. It also gave a solubility (Cetiol B oil comprising ionic liquid, 21 °C, oil or lipid, Oil/IL 60/40 weight ratio, IL N-propyl-N′-propylimidazolium acetate, read-out: Solubility of fluxapyroxad with Cetiol ® B as oil) of 49.6 mg/mL, a solubility (Cetiol B oil comprising ionic liquid, 21 °C, oil or lipid, Oil/IL 60/40 weight ratio, IL Tetrabutylammonium [2-(2-methoxyethoxy)ethoxy]acetate, read-out: Solubility of fluxapyroxad with Cetiol ® B as oil) of 40.8 mg/mL and a solubility (Cetiol B oil comprising ionic liquid, 21 °C, oil or lipid, Oil/IL 80/20 weight ratio, IL Cholinium octanoate, read-out: Solubility of fluxapyroxad with Cetiol ® B as oil) of 20.8 mg/mL. For the same molecule, the solubility (Cetiol B oil comprising ionic liquid, 21 °C, oil or lipid, Oil/IL 80/20 weight ratio, IL N-butyl-N′-methylimidazolium dimethylphosphate, read-out: Solubility of fluxapyroxad with Cetiol ® B as oil) was 29 mg/mL, the solubility (Cetiol B oil comprising ionic liquid, 21 °C, oil or lipid, Oil/IL 80/20 weight ratio, IL N-ethyl-N′-methylimidazolium dibutylphosphate, read-out: Solubility of fluxapyroxad with Cetiol ® B as oil) was 31.1 mg/mL and the solubility (Cetiol B oil comprising ionic liquid, 21 °C, oil or lipid, Oil/IL 80/20 weight ratio, IL N-ethyl-N′-methylimidazolium heptanoate, read-out: Solubility of fluxapyroxad with Cetiol ® B as oil) was 35.9 mg/mL. The solubility (Cetiol B oil comprising ionic liquid, 21 °C, oil or lipid, Oil/IL 80/20 weight ratio, IL N-ethyl-N′-methylimidazolium octanoate, read-out: Solubility of fluxapyroxad with Cetiol ® B as oil) was 34.3 mg/mL, the solubility (Cetiol B oil comprising ionic liquid, 21 °C, oil or lipid, Oil/IL 80/20 weight ratio, IL N-propyl-N′-propylimidazolium acetate, read-out: Solubility of fluxapyroxad with Cetiol ® B as oil) was 35.4 mg/mL and the solubility (Cetiol B oil comprising ionic liquid, 21 °C, oil or lipid, Oil/IL 80/20 weight ratio, IL Tetrabutylammonium [2-(2-methoxyethoxy)ethoxy]acetate, read-out: Solubility of fluxapyroxad with Cetiol ® B as oil) was 27.5 mg/mL. The solubility (Cetiol B oil comprising ionic liquid, 21 °C, oil or lipid, Oil/IL 90/10 weight ratio, IL N-butyl-N′-methylimidazolium acetate, read-out: Solubility of fluxapyroxad with Cetiol ® B as oil) was 23.7 mg/mL, the solubility (Cetiol B oil comprising ionic liquid, 21 °C, oil or lipid, Oil/IL 90/10 weight ratio, IL N-ethyl-N′-ethylimidazolium propionate, read-out: Solubility of fluxapyroxad with Cetiol ® B as oil) was 24.2 mg/mL and the solubility (Cetiol B oil comprising ionic liquid, 21 °C, oil or lipid, Oil/IL 90/10 weight ratio, IL N-ethyl-N′-methylimidazolium acetate, read-out: Solubility of fluxapyroxad with Cetiol ® B as oil) was 25.6 mg/mL. The solubility (Cetiol B oil comprising ionic liquid, 21 °C, oil or lipid, Oil/IL 90/10 weight ratio, IL Tetrabutylammonium [2-(2-methoxyethoxy)ethoxy]acetate, read-out: Solubility of fluxapyroxad with Cetiol ® B as oil) was 16 mg/mL, the solubility (Cetiol B oil without ionic liquid, 21 °C, oil or lipid, 100 Oil (Cetiol B, no IL), read-out: Solubility of fluxapyroxad with Cetiol ® B as oil) was 3 mg/mL (≈ 7.87 mM) and the solubility (neat Agnique AMD 12 (N,N-dimethyldodecanamide) oil, 21 °C, oil or lipid, 100 Oil (Agnique AMD 12, no IL), read-out: Solubility of fluxapyroxad with Agnique AMD 12 ® (N,N-dimethyldodecanamide, lauryl N,N-dimethylamide) as oil) was 21 mg/mL (≈ 55.1 mM). The solubility (neat N-butyl-N′-methylimidazolium acetate (ionic liquid), organic solvent or mixture, 100 IL (no oil), IL N-butyl-N′-methylimidazolium acetate, read-out: Solubility of fluxapyroxad with Agnique AMD 12 ® (N,N-dimethyldodecanamide, lauryl N,N-dimethylamide) as oil) was 1 mg/mL (≈ 2.62 mM), the solubility (neat N-ethyl-N′-ethylimidazolium propionate (ionic liquid), 21 °C, organic solvent or mixture, 100 IL (no oil), IL N-ethyl-N′-ethylimidazolium propionate, read-out: Solubility of fluxapyroxad with Solvesso ® 200 ND as oil) was 45.7 mg/mL (≈ 120 mM) and the solubility (neat N-ethyl-N′-methylimidazolium acetate (ionic liquid), organic solvent or mixture, 100 IL (no oil), IL N-ethyl-N′-methylimidazolium acetate, read-out: Solubility of fluxapyroxad with Agnique AMD 12 ® (N,N-dimethyldodecanamide, lauryl N,N-dimethylamide) as oil) was 1 mg/mL (≈ 2.62 mM). For the same molecule, the solubility (neat Solvesso 200 ND (oil), 21 °C, oil or lipid, 100 Oil (Solvesso 200 ND, no IL), read-out: Solubility of fluxapyroxad with Solvesso ® 200 ND as oil) was 1.5 mg/mL (≈ 3.93 mM), the solubility (neat cholinium octanoate (ionic liquid), 21 °C, organic solvent or mixture, 100 IL (no oil), IL Cholinium octanoate, read-out: Solubility of fluxapyroxad with Cetiol ® B as oil) was 5 mg/mL (≈ 13.1 mM) and the solubility (neat ionic liquid (no oil), 21 °C, organic solvent or mixture, 100 IL (no oil), IL N-butyl-N′-methylimidazolium acetate, read-out: Solubility of fluxapyroxad with Cetiol ® B as oil) was 42.4 mg/mL (≈ 111 mM). It also gave a solubility (neat ionic liquid (no oil), 21 °C, organic solvent or mixture, 100 IL (no oil), IL N-butyl-N′-methylimidazolium dimethylphosphate, read-out: Solubility of fluxapyroxad with Cetiol ® B as oil) of 5 mg/mL (≈ 13.1 mM), a solubility (neat ionic liquid (no oil), 21 °C, organic solvent or mixture, 100 IL (no oil), IL N-ethyl-N′-ethylimidazolium propionate, read-out: Solubility of fluxapyroxad with Cetiol ® B as oil) of 45.7 mg/mL (≈ 120 mM) and a solubility (neat ionic liquid (no oil), 21 °C, organic solvent or mixture, 100 IL (no oil), IL N-ethyl-N′-methylimidazolium acetate, read-out: Solubility of fluxapyroxad with Cetiol ® B as oil) of 47.2 mg/mL (≈ 124 mM). The solubility (neat ionic liquid (no oil), 21 °C, organic solvent or mixture, 100 IL (no oil), IL N-ethyl-N′-methylimidazolium dibutylphosphate, read-out: Solubility of fluxapyroxad with Cetiol ® B as oil) was 9.5 mg/mL (≈ 24.9 mM), the solubility (neat ionic liquid (no oil), 21 °C, organic solvent or mixture, 100 IL (no oil), IL N-ethyl-N′-methylimidazolium heptanoate, read-out: Solubility of fluxapyroxad with Cetiol ® B as oil) was 26.9 mg/mL (≈ 70.5 mM) and the solubility (neat ionic liquid (no oil), 21 °C, organic solvent or mixture, 100 IL (no oil), IL N-ethyl-N′-methylimidazolium octanoate, read-out: Solubility of fluxapyroxad with Cetiol ® B as oil) was 20.8 mg/mL (≈ 54.5 mM). The solubility (neat ionic liquid (no oil), 21 °C, organic solvent or mixture, 100 IL (no oil), IL N-propyl-N′-propylimidazolium acetate, read-out: Solubility of fluxapyroxad with Cetiol ® B as oil) was 36.7 mg/mL (≈ 96.2 mM), the solubility (neat ionic liquid (no oil), 21 °C, organic solvent or mixture, 100 IL (no oil), IL Tetrabutylammonium [2-(2-methoxyethoxy)ethoxy]acetate, read-out: Solubility of fluxapyroxad with Cetiol ® B as oil) was 9.5 mg/mL (≈ 24.9 mM) and the solubility (neat ionic liquid (no oil), organic solvent or mixture, 100 IL (no oil), IL N-ethyl-N′-methylimidazolium isononanoate, read-out: Solubility of fluxapyroxad with Agnique AMD 12 ® (N,N-dimethyldodecanamide, lauryl N,N-dimethylamide) as oil) was 9.5 mg/mL (≈ 24.9 mM). The solubility (oil or lipid, Oil/IL 90/10 weight ratio, IL N-butyl-N′-methylimidazolium acetate, read-out: Solubility of fluxapyroxad with Agnique AMD 12 ® (N,N-dimethyldodecanamide, lauryl N,N-dimethylamide) as oil) was 36 mg/mL, the solubility (oil/ionic liquid mixture, oil or lipid, Oil/IL 90/10 weight ratio, IL N-ethyl-N′-methylimidazolium isononanoate, read-out: Solubility of fluxapyroxad with Agnique AMD 12 ® (N,N-dimethyldodecanamide, lauryl N,N-dimethylamide) as oil) was 32 mg/mL and the solubility (organic solvent or mixture, 100 IL (no oil), IL Tetrabutylammonium [2-(2-methoxyethoxy)ethoxy]acetate, read-out: Solubility of fluxapyroxad with Agnique AMD 12 ® (N,N-dimethyldodecanamide, lauryl N,N-dimethylamide) as oil) was 9.5 mg/mL (≈ 24.9 mM).
